Assay [1] relates to ear sebaceous glands in the male hamster. Kind of assay: Topical antiandrogenic activity, ear sebaceous glands model in the male hamster. Type of assay: in vivo, Golden Syrian hamster. The conditions noted are these: Mesocricetus auratus, 336 h, topical on left pinna, area of sebaceous glands of left ear, read-out: Ear Area Inhibition. Vs Control (%); for inhibition in vivo at 0.01 mg: dose 10 μg daily for 14 days; for inhibition in vivo at 0.03 mg: dose 30 μg daily for 14 days. From the text:
• Column 2 represent the daily dose for 14 days of tested compound dissolved in ten μl solution of acetone:ethanol:propylene Glycol (1:1:2; v:v:v) applied onto a region between the two cartilage ridges of the ventral surface of left pinna. • Column 3 represents the percentage of inhibition of the area of the sebaceous glands of the left ear of the treated animals versus the area of the sebaceous glands of the left ear of the control animals.
C—In vivo Assessment of Topical Antiandrogenic Activity
The antiandrogenic activity of compounds for topical use was determined using the ear sebaceous glands model in the male hamster.
Male Golden Syrian Hamsters (SYR) of 110-120 g were obtained from Harlan Sprague-Dawley (Madison, USA) and housed up to 2 per plastic cage in a temperature (22±3° C.) and light (12 h light/day, lights on at 7h15)-controlled environment. The hamsters were fed with Certified Rodent Diet 5002 (pellet) and had access to tap water ad libitum. The animals were acclimatized for at least five days prior to beginning the study. Animals were randomly assigned to groups of eight hamsters. One group of hamsters were castrated under isoflurane-induced anesthesia on the day of dosing initiation (SD 1) and used as control group.
To evaluate the antiandrogenic activity, the tested compounds were applied topically on the inner part of the left ear, once daily, for 14 days. […] For animals of the castrated and intact control groups, one ten-μL vehicle was applied onto the left ear. No solution was applied on the right ear.
On Study Day 15, the hamsters were euthanized by cervical dislocation under isoflurane anesthesia. The left and right ears were collected attached together by the head skin, flat fixed on a paper and then immersed in 10% neutral buffered formalin. Punctures making a circular hole of 6 mm were made on the flat fixed ear in the region where the solution has been applied. These punch-made specimens were collected from each ear. Using a scalpel blade, the collected 6 mm round ear specimens were cut in the middle between the two cartilage ridges. The two equal parts of the ear round specimens were embedded in paraffin. After processing the tissue, the two parts were vertically embedded parallel to each other in such a way that the flat 6 mm area was facing out. From each paraffin block, one section (5 μm thick) was cut and collected on a glass slide. Thus, each slide contained two elongated sections of 6 mm length. Slides were stained with hematoxylin and eosin.
Using the video camera and the lens number X5 of the light microscope, the resulting field appearing on the screen has a length of 0.953 mm. When the first 6 mm long section was examined from the left to the right, the first and second fields were ignored and the third and fourth fields were captured for analysis by the image analyzer. Each field has the length of 0.953 mm. With the help of the screen mouse, the sebaceous glands within the whole field length (0.953 mm) were marked. Also, an area having the length of the whole field and the height between stratum granulosum and the upper edge of the cartilage was drawn.
The total area of the sebaceous glands (μm^2) in each examined field was calculated by the Image Analyser. We also measured the total area, which has the length of 0.953 mm and the height between stratum granulosum and the cartilage. In addition, the percentage of the area occupied by the glands was obtained. Thus, for each ear, two sections were cut and two fields from each section were analyzed. The total of the four readings was averaged and the mean standard error of the mean was calculated by the image analyzer. The results were expressed in μm^2 as the total surface of glands per field and also as percentage of the area occupied by the glands in the tissue.

Assay [2] deals with Shionogi mouse mammary carcinoma cells. Description: Antiandrogenic activity on DHT-stimulated Shionogi mouse mammary carcinoma cell number. Type of assay: cell-based. The conditions noted are these: for A = Ki OH-Flu/Ki compound: ratio of Ki of hydroxyflutamide versus tested compound, higher values preferable.
Where [3] appears, read: Mus musculus, read-out: Antiandrogenic activity IC50 (nM).
Where [4] appears, read: inhibition of DHT-stimulated Shionogi cell number.
Setting [5] is: Mus musculus, inhibition of DHT-stimulated Shionogi cell number, 10-12 days, read-out: Antiandrogenic activity IC50.

Each structure is given as a SMILES string. Read-outs that look alike come from different tables or passages of the source.

As usually defined, the IC50 is the concentration at which inhibition is half-maximal. With `COc1ccc(-c2ccc(C#N)c(C(F)(F)F)c2)c(F)c1` [EM-4174], the inhibition in vivo at 0.01 mg in assay [1] (topical) turned out to be 86%. In addition, the IC50 in assay [2] (setting [3]) was 77 nM. Also, the “A = Ki OH-Flu/Ki compound” value in assay [2] (setting [4]) is recorded as 2.1.

Turning to `N#Cc1ccc(-c2cc(F)ccc2F)cc1C(F)(F)F` [EM-4046], in assay [1] (topical), the inhibition in vivo at 0.03 mg worked out at 5%. In assay [2] (setting [5]), the IC50 was above 500 nM. Besides, in assay [2] (setting [4]), the “A = Ki OH-Flu/Ki compound” value is below 0.2.

In the case of `N#Cc1ccc(-c2c(F)cccc2F)cc1C(F)(F)F` [EM-4004], the inhibition in vivo at 0.01 mg in assay [1] (topical) is 60%. For the same compound, the IC50 in assay [2] (setting [5]) is above 500 nM. For the same compound, the “A = Ki OH-Flu/Ki compound” value in assay [2] (setting [4]) is on record as below 0.2.

`N#Cc1ccc(-c2c(F)cccc2F)cc1Cl` [EM-4977, 3-chloro-2′,6′-difluoro-biphenyl-4-carbonitrile]: the inhibition in vivo at 0.001 mg in assay [1] (topical, dose 1 μg daily for 14 days) was 25.9%. The inhibition in vivo at 0.003 mg in assay [1] (topical, dose 3 μg daily for 14 days) came to 48%. In assay [1] (topical), the inhibition in vivo at 0.01 mg amounted to 73%. Also, the half-inhibitory concentration (IC50) in assay [2] (setting [3]) came out at 12.8 nM. In addition, the “A = Ki OH-Flu/Ki compound” value in assay [2] (setting [4]) stood at 12.

For `COc1ccc(-c2ccc(C#N)c(C(F)(F)F)c2)cc1Br` [EM-4080], the inhibition in vivo at 0.03 mg in assay [1] (topical) was determined as 5%. For the same compound, the half-maximal inhibitory concentration (IC50) in assay [2] (setting [5]) was found to be 102 nM. Besides, in assay [2] (setting [4]), the “A = Ki OH-Flu/Ki compound” value was determined as 0.6.

Take `N#Cc1ccc(-c2ccc(F)cc2C(=O)Nc2ccc(Cl)cc2)cc1C(F)(F)F` [EM-4863]: the inhibition in vivo at 0.03 mg in assay [1] is 21%. Besides, in assay [2] (inhibition of DHT-stimulated Shionogi cell number, 10-12 days, read-out: Antiandrogenic activity IC50), the half-inhibitory concentration (IC50) stood at 161 nM. For the same compound, the “A = Ki OH-Flu/Ki compound” value in assay [2] (setting [4]) turned out to be 0.3.

In the case of `COc1ccc(-c2ccc(C#N)c(C(F)(F)F)c2)cc1F` [EM-4057], the inhibition in vivo at 0.01 mg in assay [1] (topical) came out at 64%. The 50% inhibitory concentration (IC50) in assay [2] (setting [3]) was found to be 84 nM. In addition, the “A = Ki OH-Flu/Ki compound” value in assay [2] (setting [4]) came out at 1.2.

With `N#Cc1ccc(-c2cccc(C(O)C(F)(F)F)c2)cc1C(F)(F)F` (stereo not shown) [EM-4265], the inhibition in vivo at 0.03 mg in assay [1] (topical) stood at 0%. Moreover, the IC50 in assay [2] (setting [5]) came to 116 nM. Also, in assay [2] (setting [4]), the “A = Ki OH-Flu/Ki compound” value worked out at 0.7.

`N#Cc1ccc(-c2ccc(N)cc2)cc1C(F)(F)F` [EM-4186]: the inhibition in vivo at 0.03 mg in assay [1] (topical) is 0%. In addition, the IC50 in assay [2] (setting [5]) came to 118 nM. Moreover, in assay [2] (setting [4]), the “A = Ki OH-Flu/Ki compound” value is given as 1.2.

With `COc1cc(F)ccc1-c1ccc(C#N)c(C(F)(F)F)c1` [EM-4068], the inhibition in vivo at 0.03 mg in assay [1] (topical) turned out to be 15%. Also, the half-inhibitory concentration (IC50) in assay [2] (setting [3]) is 96 nM. For the same compound, the “A = Ki OH-Flu/Ki compound” value in assay [2] (setting [4]) was 0.9.

For `N#Cc1ccc(-c2ccc(F)cc2)cc1C(F)(F)F` [EM-3705], the IC50 in assay [2] (setting [5]) is 129 nM. In assay [2] (setting [4]), the “A = Ki OH-Flu/Ki compound” value turned out to be 0.7.

Regarding `N#Cc1cc(-c2ccc(C#N)c(C(F)(F)F)c2)ccc1F` [EM-4056], the IC50 in assay [2] (setting [5]) was above 500 nM. Further, the “A = Ki OH-Flu/Ki compound” value in assay [2] (setting [4]) was below 0.2.

For `CN(C)c1ccc(-c2ccc(C#N)c(C(F)(F)F)c2)cc1` [EM-3814], the IC50 in assay [2] (setting [5]) worked out at 150 nM. Moreover, in assay [2] (setting [4]), the “A = Ki OH-Flu/Ki compound” value is listed as 0.9.

For the compound `N#Cc1ccc(-c2ccc(F)cc2F)cc1[N+](=O)[O-]` [EM-4633], the IC50 in assay [2] (setting [5]) amounted to 96 nM. Besides, the “A = Ki OH-Flu/Ki compound” value in assay [2] (setting [4]) was 0.8.

Take `N#Cc1ccc(-c2ccc([N+](=O)[O-])c(C(F)(F)F)c2)cc1` [EM-4180]: the IC50 in assay [2] (setting [3]) was above 500 nM. Further, in assay [2] (setting [4]), the “A = Ki OH-Flu/Ki compound” value is below 0.2.

Regarding `COc1ccc(-c2ccc(F)cc2F)cc1Br` [EM-4871], the half-maximal inhibitory concentration (IC50) in assay [2] (setting [5]) is above 500 nM. Besides, the “A = Ki OH-Flu/Ki compound” value in assay [2] (setting [4]) is reported as below 0.2.

On to `CC(O)(c1ccc(-c2ccc(C#N)cc2)cc1)C(F)(F)F` (stereo not shown) [EM-3979], for which the IC50 in assay [2] (setting [5]) is above 500 nM. The “A = Ki OH-Flu/Ki compound” value in assay [2] (setting [4]) is below 0.2.

These data come from US6933321B2, “Antiandrogenic biphenyls” (Endorecherche, Inc., priority 2002, dated 2005).
